Data from BindingDB's records for PubMed 29751237 (University of Kwazulu-Natal, 2018).

Biological target: Maltase-glucoamylase (Homo sapiens, UniProt O43451)
Test: Inhibition of alpha-glucosidase (unknown origin) using p-nitrophenyl-alpha-D-glucopyranoside as substrate incubated for 30 mins by spectrophotometric analysis

Sequence of Maltase-glucoamylase (O43451 whole entry): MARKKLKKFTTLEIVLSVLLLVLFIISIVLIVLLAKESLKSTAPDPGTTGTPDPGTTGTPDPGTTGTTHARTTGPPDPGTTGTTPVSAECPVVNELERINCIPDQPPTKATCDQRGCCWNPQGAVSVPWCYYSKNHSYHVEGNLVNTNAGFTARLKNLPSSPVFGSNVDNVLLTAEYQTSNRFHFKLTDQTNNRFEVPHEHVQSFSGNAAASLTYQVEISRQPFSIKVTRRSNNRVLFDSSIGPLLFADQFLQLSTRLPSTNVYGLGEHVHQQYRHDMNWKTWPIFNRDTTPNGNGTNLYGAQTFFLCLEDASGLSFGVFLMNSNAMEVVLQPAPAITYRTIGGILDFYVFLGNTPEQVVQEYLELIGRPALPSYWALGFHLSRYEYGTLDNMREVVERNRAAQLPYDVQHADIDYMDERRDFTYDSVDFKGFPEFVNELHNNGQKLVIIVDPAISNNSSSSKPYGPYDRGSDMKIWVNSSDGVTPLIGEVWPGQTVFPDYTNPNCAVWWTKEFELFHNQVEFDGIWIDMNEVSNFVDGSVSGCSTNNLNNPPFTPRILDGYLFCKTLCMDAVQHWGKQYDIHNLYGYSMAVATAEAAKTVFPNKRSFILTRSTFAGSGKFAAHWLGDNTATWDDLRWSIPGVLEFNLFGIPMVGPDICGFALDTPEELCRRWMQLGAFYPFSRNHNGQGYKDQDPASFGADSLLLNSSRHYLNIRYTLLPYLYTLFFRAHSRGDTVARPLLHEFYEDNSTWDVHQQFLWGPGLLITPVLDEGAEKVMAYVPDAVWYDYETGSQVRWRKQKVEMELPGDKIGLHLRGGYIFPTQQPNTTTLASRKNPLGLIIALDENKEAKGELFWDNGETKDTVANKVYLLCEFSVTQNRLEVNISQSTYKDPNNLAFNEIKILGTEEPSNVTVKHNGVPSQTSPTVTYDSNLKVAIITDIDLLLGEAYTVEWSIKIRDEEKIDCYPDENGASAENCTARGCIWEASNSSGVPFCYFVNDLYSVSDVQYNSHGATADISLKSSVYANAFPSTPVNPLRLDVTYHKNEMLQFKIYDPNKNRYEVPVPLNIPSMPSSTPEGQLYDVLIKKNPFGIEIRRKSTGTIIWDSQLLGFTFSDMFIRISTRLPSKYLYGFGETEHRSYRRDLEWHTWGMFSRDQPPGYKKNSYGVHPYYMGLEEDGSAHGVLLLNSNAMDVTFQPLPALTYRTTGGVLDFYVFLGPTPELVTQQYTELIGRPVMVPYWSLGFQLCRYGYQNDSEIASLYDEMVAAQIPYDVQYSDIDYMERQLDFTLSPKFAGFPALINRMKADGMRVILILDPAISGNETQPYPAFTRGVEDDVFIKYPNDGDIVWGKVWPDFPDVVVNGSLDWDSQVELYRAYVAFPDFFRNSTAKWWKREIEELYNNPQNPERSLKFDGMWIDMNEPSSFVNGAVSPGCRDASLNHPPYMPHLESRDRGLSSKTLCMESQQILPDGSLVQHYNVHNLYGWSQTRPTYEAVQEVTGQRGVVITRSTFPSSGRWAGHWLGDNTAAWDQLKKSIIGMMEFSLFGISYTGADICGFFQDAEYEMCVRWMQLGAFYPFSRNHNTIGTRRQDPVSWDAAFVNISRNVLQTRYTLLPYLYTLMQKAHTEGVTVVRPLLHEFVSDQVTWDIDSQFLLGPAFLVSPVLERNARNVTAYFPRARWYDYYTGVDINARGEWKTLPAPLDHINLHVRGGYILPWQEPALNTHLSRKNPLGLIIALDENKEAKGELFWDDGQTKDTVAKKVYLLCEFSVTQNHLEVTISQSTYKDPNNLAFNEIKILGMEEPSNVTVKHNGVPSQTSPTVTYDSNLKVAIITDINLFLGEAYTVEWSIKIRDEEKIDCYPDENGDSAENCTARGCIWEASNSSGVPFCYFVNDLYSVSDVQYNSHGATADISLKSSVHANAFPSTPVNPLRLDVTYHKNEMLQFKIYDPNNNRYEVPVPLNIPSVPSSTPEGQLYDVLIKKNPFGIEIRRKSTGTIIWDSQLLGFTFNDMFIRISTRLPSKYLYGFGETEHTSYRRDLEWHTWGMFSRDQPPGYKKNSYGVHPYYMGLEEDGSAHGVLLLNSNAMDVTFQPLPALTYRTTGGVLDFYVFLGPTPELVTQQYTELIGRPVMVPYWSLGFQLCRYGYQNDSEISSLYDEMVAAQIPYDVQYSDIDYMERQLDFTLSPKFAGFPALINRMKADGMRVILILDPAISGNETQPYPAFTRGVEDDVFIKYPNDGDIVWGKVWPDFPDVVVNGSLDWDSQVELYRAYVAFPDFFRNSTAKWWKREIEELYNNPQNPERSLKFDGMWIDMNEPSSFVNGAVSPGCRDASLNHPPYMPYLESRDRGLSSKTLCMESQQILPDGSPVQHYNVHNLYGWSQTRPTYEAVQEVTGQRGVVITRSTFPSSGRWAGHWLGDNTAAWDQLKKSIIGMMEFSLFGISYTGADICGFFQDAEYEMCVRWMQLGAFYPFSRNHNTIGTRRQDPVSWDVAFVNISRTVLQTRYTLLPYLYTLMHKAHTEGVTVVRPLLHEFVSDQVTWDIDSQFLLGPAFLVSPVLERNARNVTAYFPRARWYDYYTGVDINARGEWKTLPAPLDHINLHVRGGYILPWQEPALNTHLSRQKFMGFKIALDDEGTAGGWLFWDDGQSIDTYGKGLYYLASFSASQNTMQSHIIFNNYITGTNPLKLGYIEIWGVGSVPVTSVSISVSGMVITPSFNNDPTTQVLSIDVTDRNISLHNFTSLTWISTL

**Q.** How did the IC50 turn out when `CC(C)=CCC/C(C)=C/Cc1c(O)cc(O)c(C(=O)/C=C/c2ccc(O)cc2)c1O` was run?
**A.** The IC50 was 1.08 µM.
